PubChem BioAssay (NCI)
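Five compound concentrations were applied to cells in 96-well plates for 48 hours; endpoints were derived by simple linear interpolation of the resulting dose-response curve. TGI: total growth inhibition.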

How the values were obtained:
Test in all cases: inhibition of tumour cell growth, NCI panel, 48 h
SNB-75 CNS = system: SNB-75 CNS
SK-MEL-28 melanoma = system: SK-MEL-28 melanoma
SF-539 CNS = system: SF-539 CNS
PC-3 prostate = system: PC-3 prostate
NCI-H522 lung = system: NCI-H522 lung
RXF 393 renal = system: RXF 393 renal
NCI-H460 lung = system: NCI-H460 lung
SK-MEL-2 melanoma = system: SK-MEL-2 melanoma
EKVX NSCLC = system: EKVX NSCLC
HCT-116 colon = system: HCT-116 colon
NCI-H23 lung = system: NCI-H23 lung
SK-OV-3 ovarian = system: SK-OV-3 ovarian
SN12C renal = system: SN12C renal
CAKI-1 renal = system: CAKI-1 renal
TK-10 renal = system: TK-10 renal
T-47D breast = system: T-47D breast
OVCAR-8 ovarian = system: OVCAR-8 ovarian
OVCAR-3 ovarian = system: OVCAR-3 ovarian
HOP-62 NSCLC = system: HOP-62 NSCLC
786-0 renal = system: 786-0 renal
HOP-92 NSCLC = system: HOP-92 NSCLC
UACC-257 melanoma = system: UACC-257 melanoma
M14 melanoma = system: M14 melanoma
DU-145 prostate = system: DU-145 prostate
SK-MEL-5 melanoma = system: SK-MEL-5 melanoma
A498 renal = system: A498 renal
COLO 205 colon = system: COLO 205 colon
SF-295 CNS = system: SF-295 CNS
ACHN renal = system: ACHN renal
OVCAR-4 ovarian = system: OVCAR-4 ovarian
HCT-15 colon = system: HCT-15 colon
SF-268 CNS = system: SF-268 CNS
HCC-2998 colon = system: HCC-2998 colon
U251 CNS = system: U251 CNS
MCF7 breast = system: MCF7 breast
UO-31 renal = system: UO-31 renal
K-562 leukemia = system: K-562 leukemia
BT-549 breast = system: BT-549 breast
NCI-H226 lung = system: NCI-H226 lung
UACC-62 melanoma = system: UACC-62 melanoma
NCI/ADR-RES ovarian = system: NCI/ADR-RES ovarian
MOLT-4 leukemia = system: MOLT-4 leukemia
MDA-MB-231 breast = system: MDA-MB-231 breast
OVCAR-5 ovarian = system: OVCAR-5 ovarian
SR leukemia = system: SR leukemia
HL-60(TB) leukemia = system: HL-60(TB) leukemia
MDA-MB-435 = system: MDA-MB-435
A549 NSCLC = system: A549 NSCLC
SW-620 colon = system: SW-620 colon
IGROV1 ovarian = system: IGROV1 ovarian
LOX IMVI melanoma = system: LOX IMVI melanoma
KM12 colon = system: KM12 colon
HT29 colon = system: HT29 colon
RPMI-8226 leukemia = system: RPMI-8226 leukemia
CCRF-CEM leukemia = system: CCRF-CEM leukemia
SNB-19 CNS = system: SNB-19 CNS
MALME-3M melanoma = system: MALME-3M melanoma

Structure (SMILES): CCC(=O)NI1OC(=O)c2ccccc21
- TGI (SNB-75 CNS): > 100 µM
- TGI (SK-MEL-28 melanoma): > 100 µM
- TGI (SF-539 CNS): > 100 µM
- TGI (PC-3 prostate): > 100 µM
- TGI (NCI-H522 lung): 48.8 µM
- TGI (RXF 393 renal): > 100 µM
- TGI (NCI-H460 lung): > 100 µM
- TGI (SK-MEL-2 melanoma): > 100 µM
- TGI (EKVX NSCLC): > 100 µM
- TGI (HCT-116 colon): > 100 µM
- TGI (NCI-H23 lung): > 100 µM
- TGI (SK-OV-3 ovarian): > 100 µM
- TGI (SN12C renal): > 100 µM
- TGI (CAKI-1 renal): 55.2 µM
- TGI (TK-10 renal): > 100 µM
- TGI (T-47D breast): > 100 µM
- TGI (OVCAR-8 ovarian): > 100 µM
- TGI (OVCAR-3 ovarian): > 100 µM
- TGI (HOP-62 NSCLC): > 100 µM
- TGI (786-0 renal): > 100 µM
- TGI (HOP-92 NSCLC): > 100 µM
- TGI (UACC-257 melanoma): > 100 µM
- TGI (M14 melanoma): > 100 µM
- TGI (DU-145 prostate): > 100 µM
- TGI (SK-MEL-5 melanoma): > 100 µM
- TGI (A498 renal): > 100 µM
- TGI (COLO 205 colon): > 100 µM
- TGI (SF-295 CNS): > 100 µM
- TGI (ACHN renal): > 100 µM
- TGI (OVCAR-4 ovarian): > 100 µM
- TGI (HCT-15 colon): > 100 µM
- TGI (SF-268 CNS): > 100 µM
- TGI (HCC-2998 colon): > 100 µM
- TGI (U251 CNS): > 100 µM
- TGI (MCF7 breast): > 100 µM
- TGI (UO-31 renal): > 100 µM
- TGI (K-562 leukemia): > 100 µM
- TGI (BT-549 breast): > 100 µM
- TGI (NCI-H226 lung): > 100 µM
- TGI (UACC-62 melanoma): > 100 µM
- TGI (NCI/ADR-RES ovarian): > 100 µM
- TGI (MOLT-4 leukemia): > 100 µM
- TGI (MDA-MB-231 breast): > 100 µM
- TGI (OVCAR-5 ovarian): > 100 µM
- TGI (SR leukemia): > 100 µM
- TGI (HL-60(TB) leukemia): > 100 µM
- TGI (MDA-MB-435): > 100 µM
- TGI (A549 NSCLC): > 100 µM
- TGI (SW-620 colon): > 100 µM
- TGI (IGROV1 ovarian): > 100 µM
- TGI (LOX IMVI melanoma): > 100 µM
- TGI (KM12 colon): > 100 µM
- TGI (HT29 colon): > 100 µM
- TGI (RPMI-8226 leukemia): > 100 µM
- TGI (CCRF-CEM leukemia): > 100 µM

Structure (SMILES): Cc1c(O)c(OC2OC(CO)C(O)C(O)C2O)cc2c1CC[C@@H]1C2(C)C(=O)C[C@]2(C)[C@@H]([C@@](C)(O)C3CCC(C)(C)O3)[C@H](O)C[C@@]12C (stereo not given in full)
- TGI (SNB-75 CNS): > 100 µM
- TGI (SK-MEL-28 melanoma): > 100 µM
- TGI (SF-539 CNS): > 100 µM
- TGI (PC-3 prostate): > 100 µM
- TGI (SNB-19 CNS): > 100 µM
- TGI (NCI-H522 lung): > 100 µM
- TGI (RXF 393 renal): > 100 µM
- TGI (NCI-H460 lung): > 100 µM
- TGI (SK-MEL-2 melanoma): > 100 µM
- TGI (EKVX NSCLC): > 100 µM
- TGI (HCT-116 colon): > 100 µM
- TGI (NCI-H23 lung): > 100 µM
- TGI (SK-OV-3 ovarian): > 100 µM
- TGI (SN12C renal): > 100 µM
- TGI (CAKI-1 renal): > 100 µM
- TGI (TK-10 renal): > 100 µM
- TGI (T-47D breast): > 100 µM
- TGI (OVCAR-8 ovarian): > 100 µM
- TGI (OVCAR-3 ovarian): > 100 µM
- TGI (HOP-62 NSCLC): > 100 µM
- TGI (786-0 renal): > 100 µM
- TGI (HOP-92 NSCLC): > 100 µM
- TGI (UACC-257 melanoma): > 100 µM
- TGI (M14 melanoma): > 100 µM
- TGI (DU-145 prostate): > 100 µM
- TGI (SK-MEL-5 melanoma): > 100 µM
- TGI (A498 renal): > 100 µM
- TGI (COLO 205 colon): > 100 µM
- TGI (SF-295 CNS): > 100 µM
- TGI (ACHN renal): > 100 µM
- TGI (OVCAR-4 ovarian): > 100 µM
- TGI (HCT-15 colon): > 100 µM
- TGI (SF-268 CNS): > 100 µM
- TGI (HCC-2998 colon): > 100 µM
- TGI (U251 CNS): > 100 µM
- TGI (MCF7 breast): > 100 µM
- TGI (UO-31 renal): > 100 µM
- TGI (K-562 leukemia): > 100 µM
- TGI (BT-549 breast): > 100 µM
- TGI (NCI-H226 lung): > 100 µM
- TGI (UACC-62 melanoma): > 100 µM
- TGI (NCI/ADR-RES ovarian): > 100 µM
- TGI (MOLT-4 leukemia): > 100 µM
- TGI (MDA-MB-231 breast): > 100 µM
- TGI (OVCAR-5 ovarian): > 100 µM
- TGI (MALME-3M melanoma): > 100 µM
- TGI (SR leukemia): > 100 µM
- TGI (MDA-MB-435): > 100 µM
- TGI (A549 NSCLC): > 100 µM
- TGI (SW-620 colon): > 100 µM
- TGI (IGROV1 ovarian): > 100 µM
- TGI (LOX IMVI melanoma): > 100 µM
- TGI (KM12 colon): > 100 µM
- TGI (HT29 colon): > 100 µM
- TGI (CCRF-CEM leukemia): > 100 µM
